{"source": "patent US20210395239A1", "about": "(Hoffmann-La Roche Inc., priority 2018, published 2021)", "key": {"hERG channel": {"molecular_target": "T1, hERG channel (Homo sapiens, UniProt Q12809)", "T1 construct": "expressed in transfected cells; host or cells: CHO (Chinese hamster ovary)", "T1 sequence (Q12809 whole entry)": "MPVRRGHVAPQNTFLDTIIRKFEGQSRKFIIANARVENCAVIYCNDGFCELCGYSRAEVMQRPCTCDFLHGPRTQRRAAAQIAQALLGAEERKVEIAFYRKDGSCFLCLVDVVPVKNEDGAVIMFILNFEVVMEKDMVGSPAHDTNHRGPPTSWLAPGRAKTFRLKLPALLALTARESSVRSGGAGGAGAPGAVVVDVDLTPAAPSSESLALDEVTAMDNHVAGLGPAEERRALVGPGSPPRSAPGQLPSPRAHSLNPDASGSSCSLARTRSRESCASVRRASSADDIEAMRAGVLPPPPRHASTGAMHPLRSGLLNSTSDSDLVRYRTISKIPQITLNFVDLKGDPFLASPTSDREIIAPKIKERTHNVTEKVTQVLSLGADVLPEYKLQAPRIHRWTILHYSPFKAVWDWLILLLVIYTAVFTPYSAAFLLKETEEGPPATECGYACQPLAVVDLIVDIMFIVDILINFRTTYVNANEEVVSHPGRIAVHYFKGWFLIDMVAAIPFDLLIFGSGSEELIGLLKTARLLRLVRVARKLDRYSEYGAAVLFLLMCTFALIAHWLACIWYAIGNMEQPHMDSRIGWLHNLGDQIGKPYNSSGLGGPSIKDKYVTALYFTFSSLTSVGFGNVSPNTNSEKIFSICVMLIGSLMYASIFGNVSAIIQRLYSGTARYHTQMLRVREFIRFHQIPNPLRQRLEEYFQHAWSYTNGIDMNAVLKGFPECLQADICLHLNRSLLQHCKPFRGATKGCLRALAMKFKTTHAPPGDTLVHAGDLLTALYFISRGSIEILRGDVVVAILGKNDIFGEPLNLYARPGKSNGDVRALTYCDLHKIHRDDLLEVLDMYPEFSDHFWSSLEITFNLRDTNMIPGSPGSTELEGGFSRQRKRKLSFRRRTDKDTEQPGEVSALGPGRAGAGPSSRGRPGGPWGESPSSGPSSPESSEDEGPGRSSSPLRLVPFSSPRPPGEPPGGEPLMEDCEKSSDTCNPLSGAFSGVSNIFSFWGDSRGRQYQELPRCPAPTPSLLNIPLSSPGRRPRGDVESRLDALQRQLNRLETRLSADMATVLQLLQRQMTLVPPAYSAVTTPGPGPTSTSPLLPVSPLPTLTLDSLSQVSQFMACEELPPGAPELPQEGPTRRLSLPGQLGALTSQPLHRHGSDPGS", "assay": "hERG channel inhibition assay (patch-clamp, CHOhERG cells)", "format": "cell-based", "settings": "for IC20: human, CHO cells stably expressing hERG (CHOhERG); for IC20 / IC50: patch-clamp, CHOhERG cells; for hERG IC20/TLR7 IC50 / hERG IC20/TLR8 IC50 / hERG IC20/TLR9 IC50: safety ratio", "in_short": "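Whole-cell voltage-clamp recordings used CHO cells stably expressing human hERG, with IKhERG evoked by a voltage protocol at 0.1 Hz. Increasing compound concentrations were applied, each for 3–10 min to reach steady state, and current amplitude and kinetics were expressed relative to control (100%).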"}, "CYP2C9": {"molecular_target": "T2, CYP2C9 (Homo sapiens, UniProt P11712)", "T2 construct": "tissue BD-Gentest 452117; host or cells: human liver microsomes", "T2 sequence (P11712 whole entry)": "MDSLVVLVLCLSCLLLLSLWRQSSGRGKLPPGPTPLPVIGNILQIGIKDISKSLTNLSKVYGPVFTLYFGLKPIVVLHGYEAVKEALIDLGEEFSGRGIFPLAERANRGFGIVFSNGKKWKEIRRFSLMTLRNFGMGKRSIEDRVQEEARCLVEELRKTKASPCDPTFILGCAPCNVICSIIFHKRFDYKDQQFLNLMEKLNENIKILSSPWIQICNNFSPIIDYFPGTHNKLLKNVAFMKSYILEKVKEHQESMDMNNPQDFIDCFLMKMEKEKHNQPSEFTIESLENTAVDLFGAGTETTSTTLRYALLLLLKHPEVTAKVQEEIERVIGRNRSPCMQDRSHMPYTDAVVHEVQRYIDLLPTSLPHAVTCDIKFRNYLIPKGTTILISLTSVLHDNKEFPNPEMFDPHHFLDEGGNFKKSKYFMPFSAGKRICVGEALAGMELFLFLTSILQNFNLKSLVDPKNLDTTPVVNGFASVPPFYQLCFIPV", "assay": "CYP inhibition assay in human liver microsome, CYP2C9", "format": "in vitro ADME", "settings": "human, human liver microsomes, probe diclofenac 5 μM, substrate diclofenac 5 μM, first value of 2C9/2D6/3A4", "protocol": "This is a high throughput screening assay used for assessment of reversible inhibition of CYP2C9, CYP2D6, and CYP3A4 activity of test compounds in human liver microsome (HLM) in early discovery stage.\n10 mM DMSO stock solutions of test compounds were diluted in DMSO to generate 2 mM intermediate stock solution. 250 nL, of intermediate stock solution were transferred in duplicate into 3 separate 384 well microtitre plates (assay-ready plates). A mixture of HLM and each substrate was made up. 45 μL of HLM substrate mix was then transferred to each well of an assay ready plate and mixed. The negative (solvent) and positive controls (standard inhibitor for each CYP) were included in each assay ready plate. The assay ready plate was warmed to 37° C. in an incubator over 10 minutes. 5 μL pre-warmed NADPH regenerating system was added to each incubation well to start the reaction. Final incubation volume was 50 μL. The assay plate then was placed back in the 37° C. incubator. After incubation (10 minutes for CYP2D6) for 5 minutes, incubates were quenched by addition of 50 μL 100% acetonitrile containing internal standards (400 ng/mL 13C6-4′-OH-Diclofenac, 20 ng/mL D3-Dextrorphan and 20 ng/mL D4-1′OH-Midazolam). The supernatants were collected for RapidFire/MS/MS analysis.\nRapidFire online solid phase extraction/sample injection system (Agilent) coupled with API4000 triple quadrupole mass spectrometer (AB Sciex) were used for sample analysis. The mobile phase composed of acetonitrile and water supplemented with 0.1% formic acid. A C4 solid phase extraction cartridge is used for sample separation. MS detection is achieved in positive ion MRM mode.\nPeak areas for substrate, metabolite and internal standard are determined using the RapidFire integrator software (version 3.6.12009.12296). Peak area ratios (PAR) of metabolite and internal standard (stable-labelled metabolite) are then calculated. The measurement window for each experiment is then defined:\nPAR (0% activity)=average PAR for all incubations containing concentrated inhibitor; Par (100% activity)=average PAR for all incubations containing no inhibitor (DMSO controls); % Activity (test inhibitor)=[PAR (test inhibitor)−PAR (0% activity)]/[PAR (100% activity)−PAR (0% activity)]; % Inhibition (test inhibitor)=100-% Activity (test inhibitor)."}}}
{"smiles": "[2H]c1nc2c(C#N)ccc(N3C[C@H](CN4CCN(c5nc(C)cc(N6CC(N)C6)n5)CC4)O[C@H](C)C3)c2nc1[2H]", "note": "[Example 124, 8-[(2S,6R)-2-[[4-[4-(3-aminoazetidin-1-yl)-6-methyl-pyrimidin-2-yl]piperazin-1-yl]methyl]-6-methyl-morpholin-4-yl]-2,3-dideuterio-quinoxaline-5-carbonitrile]", "values": [{"measurement": "IC20", "setting": "hERG channel", "result": "> 10", "unit": "µM"}, {"measurement": "IC50", "setting": "hERG channel", "result": "> 20", "unit": "µM"}, {"measurement": "hERG IC20/TLR7 IC50", "setting": "hERG channel", "result": ">2000"}, {"measurement": "hERG IC20/TLR8 IC50", "setting": "hERG channel", "result": ">10000"}, {"measurement": "hERG IC20/TLR9 IC50", "setting": "hERG channel", "result": ">322"}, {"measurement": "inhibition at 5 min, 10 µM", "setting": "CYP2C9", "result": -2, "unit": "%"}]}
{"smiles": "[2H]c1ccc2c(N3C[C@H](CN4CCN(c5ccc(N6C[C@@H](N)[C@H](OC)C6)nc5)CC4)O[C@H](C)C3)ccc(C#N)c2n1", "note": "[Example 143, 5-[(2S,6R)-2-[[4-[6-[(3R,4R)-3-amino-4-methoxy-pyrrolidin-1-yl]-3-pyridyl]piperazin-1-yl]methyl]-6-methyl-morpholin-4-yl]-2-deuterio-quinoline-8-carbonitrile]", "values": [{"measurement": "IC20", "setting": "hERG channel", "result": "> 10", "unit": "µM"}, {"measurement": "IC50", "setting": "hERG channel", "result": "> 20", "unit": "µM"}, {"measurement": "hERG IC20/TLR7 IC50", "setting": "hERG channel", "result": ">476"}, {"measurement": "hERG IC20/TLR8 IC50", "setting": "hERG channel", "result": ">1250"}, {"measurement": "hERG IC20/TLR9 IC50", "setting": "hERG channel", "result": ">212"}, {"measurement": "inhibition at 5 min, 10 µM", "setting": "CYP2C9", "result": -9.5, "unit": "%"}]}
{"smiles": "[2H]c1ccc2c(N3C[C@H](CN4CCN(c5ccc(N6CC(C)(N)C6)nc5)CC4)O[C@H](C)C3)ccc(C#N)c2n1", "note": "[Example 132, 5-[(2S,6R)-2-[[4-[6-(3-amino-3-methyl-azetidin-1-yl)-3-pyridyl]piperazin-1-yl]methyl]-6-methyl-morpholin-4-yl]-2-deuterio-quinoline-8-carbonitrile]", "values": [{"measurement": "IC20", "setting": "hERG channel", "result": "> 10", "unit": "µM"}, {"measurement": "IC50", "setting": "hERG channel", "result": "> 20", "unit": "µM"}, {"measurement": "hERG IC20/TLR7 IC50", "setting": "hERG channel", "result": ">434"}, {"measurement": "hERG IC20/TLR8 IC50", "setting": "hERG channel", "result": ">625"}, {"measurement": "hERG IC20/TLR9 IC50", "setting": "hERG channel", "result": ">71"}, {"measurement": "inhibition at 5 min, 10 µM", "setting": "CYP2C9", "result": -1, "unit": "%"}]}
{"smiles": "CO[C@@H]1CN(c2ccc(N3CCN(C[C@H]4CN(c5ccc(C#N)n6ncc(F)c56)C[C@@H](C)O4)CC3)cn2)C[C@H]1N", "note": "[Example 166, 4-[(2S,6R)-2-[[4-[6-[(3R,4R)-3-amino-4-methoxy-pyrrolidin-1-yl]-3-pyridyl]piperazin-1-yl]methyl]-6-methyl-morpholin-4-yl]-3-fluoro-pyrazolo[1,5-a]pyridine-7-carbonitrile]", "values": [{"measurement": "IC20", "setting": "hERG channel", "result": 8, "unit": "µM"}, {"measurement": "IC50", "setting": "hERG channel", "result": "> 20", "unit": "µM"}, {"measurement": "hERG IC20/TLR7 IC50", "setting": "hERG channel", "result": 380}, {"measurement": "hERG IC20/TLR8 IC50", "setting": "hERG channel", "result": 258}, {"measurement": "hERG IC20/TLR9 IC50", "setting": "hERG channel", "result": 173}, {"measurement": "inhibition at 5 min, 10 µM", "setting": "CYP2C9", "result": -3.5, "unit": "%"}]}
{"smiles": "Cc1cc(N2CCNCC2)nc(N2CCN(C[C@H]3CN(c4ccc(C#N)c5nccnc45)C[C@@H](C)O3)CC2)n1", "note": "[Example 114, 8-[(2R,6S)-2-methyl-6-[[4-(4-methyl-6-piperazin-1-yl-pyrimidin-2-yl)piperazin-1-yl]methyl]morpholin-4-yl]quinoxaline-5-carbonitrile]", "values": [{"measurement": "IC20", "setting": "hERG channel", "result": "> 10", "unit": "µM"}, {"measurement": "IC50", "setting": "hERG channel", "result": "> 20", "unit": "µM"}, {"measurement": "hERG IC20/TLR7 IC50", "setting": "hERG channel", "result": ">3333"}, {"measurement": "hERG IC20/TLR8 IC50", "setting": "hERG channel", "result": ">10000"}, {"measurement": "hERG IC20/TLR9 IC50", "setting": "hERG channel", "result": ">161"}, {"measurement": "inhibition at 5 min, 10 µM", "setting": "CYP2C9", "result": 7.5, "unit": "%"}]}
{"smiles": "C[C@@H]1CN(c2ccc(C#N)n3ncc(F)c23)C[C@H](CN2CCN(c3ccc(N4CC(C)(N)C4)nc3)CC2)O1", "note": "[Example 154, 4-[(2S,6R)-2-[[4-[6-(3-amino-3-methyl-azetidin-1-yl)-3-pyridyl]piperazin-1-yl]methyl]-6-methyl-morpholin-4-yl]-3-fluoro-pyrazolo[1,5-a]pyridine-7-carbonitrile]", "values": [{"measurement": "IC20", "setting": "hERG channel", "result": "> 10", "unit": "µM"}, {"measurement": "IC50", "setting": "hERG channel", "result": "> 20", "unit": "µM"}, {"measurement": "hERG IC20/TLR7 IC50", "setting": "hERG channel", "result": ">312"}, {"measurement": "hERG IC20/TLR8 IC50", "setting": "hERG channel", "result": ">200"}, {"measurement": "hERG IC20/TLR9 IC50", "setting": "hERG channel", "result": ">89"}, {"measurement": "inhibition at 5 min, 10 µM", "setting": "CYP2C9", "result": 2.5, "unit": "%"}]}
{"smiles": "CO[C@H]1CN(c2cc(C)nc(N3CCN(C[C@H]4CN(c5ccc(C#N)c6nccnc56)C[C@@H](C)O4)CC3)n2)C[C@@H]1N", "note": "[Example 104, 8-[(2S,6R)-2-[[4-[4-[(3S,4S)-3-amino-4-methoxy-pyrrolidin-1-yl]-6-methyl-pyrimidin-2-yl]piperazin-1-yl]methyl]-6-methyl-morpholin-4-yl]quinoxaline-5-carbonitrile]", "values": [{"measurement": "IC20", "setting": "hERG channel", "result": "> 10", "unit": "µM"}, {"measurement": "IC50", "setting": "hERG channel", "result": "> 20", "unit": "µM"}, {"measurement": "hERG IC20/TLR7 IC50", "setting": "hERG channel", "result": ">454"}, {"measurement": "hERG IC20/TLR8 IC50", "setting": "hERG channel", "result": ">10000"}, {"measurement": "hERG IC20/TLR9 IC50", "setting": "hERG channel", "result": ">142"}, {"measurement": "inhibition at 5 min, 10 µM", "setting": "CYP2C9", "result": -1, "unit": "%"}]}
{"smiles": "[2H]c1ccc2c(N3C[C@H](CN4CCN(c5ccc(N[C@H]6CNC[C@H]6F)nc5)CC4)O[C@H](C)C3)ccc(C#N)c2n1", "note": "[Example 162, 2-deuterio-5-[(2S,6R)-2-[[4-[6-[[(3S,4R)-4-fluoropyrrolidin-3-yl]amino]-3-pyridyl]piperazin-1-yl]methyl]-6-methyl-morpholin-4-yl]quinoline-8-carbonitrile]", "values": [{"measurement": "inhibition at 5 min, 10 µM", "setting": "CYP2C9", "result": -2.5, "unit": "%"}]}
{"smiles": "Cc1cc(N2CCN(C[C@H]3CN(c4ccc(C#N)c5nccnc45)C[C@@H](C)O3)CC2)nc(N2CC(N)C2)n1", "note": "[Example 112, 8-[(2S,6R)-2-[[4-[2-(3-aminoazetidin-1-yl)-6-methyl-pyrimidin-4-yl]piperazin-1-yl]methyl]-6-methyl-morpholin-4-yl]quinoxaline-5-carbonitrile]", "values": [{"measurement": "inhibition at 5 min, 10 µM", "setting": "CYP2C9", "result": 0.5, "unit": "%"}]}
{"smiles": "C[C@@H]1CN(c2ccc(C#N)c3ncccc23)C[C@H](CN2CCC(c3cccc(N4CCNCC4)c3)C2)O1", "note": "(stereo partly drawn) [Example 1, 5-[(2R,6S)-2-methyl-6-[[3-(3-piperazin-1-ylphenyl)pyrrolidin-1-yl]methyl]morpholin-4-yl]quinoline-8-carbonitrile]", "values": [{"measurement": "inhibition at 5 min, 10 µM", "setting": "CYP2C9", "result": -7, "unit": "%"}]}
{"smiles": "Cc1ccc(N2C[C@H](CN3CCN(c4nccc(N5CCNCC5)n4)CC3)O[C@H](C)C2)c2nccnc12", "note": "[Example 116, (2R,6S)-2-methyl-4-(8-methylquinoxalin-5-yl)-6-[[4-(4-piperazin-1-ylpyrimidin-2-yl)piperazin-1-yl]methyl]morpholine]", "values": [{"measurement": "inhibition at 5 min, 10 µM", "setting": "CYP2C9", "result": -8.5, "unit": "%"}]}
{"smiles": "C[C@@H]1CN(c2ccc(C#N)c3ncccc23)C[C@H](CN2CC(c3ccc(N4CCNCC4)cc3)C2)O1", "note": "[Example 3, 5-[(2R,6S)-2-methyl-6-[[3-(4-piperazin-1-ylphenyl)azetidin-1-yl]methyl]morpholin-4-yl]quinoline-8-carbonitrile]", "values": [{"measurement": "inhibition at 5 min, 10 µM", "setting": "CYP2C9", "result": -18, "unit": "%"}]}
{"smiles": "CO[C@H]1CN(c2nc(C)cc(N3CCN(C[C@H]4CN(c5ccc(C#N)c6nccnc56)C[C@@H](C)O4)CC3)n2)C[C@@H]1N", "note": "[Example 106, 8-[(2S,6R)-2-[[4-[2-[(3S,4S)-3-amino-4-methoxy-pyrrolidin-1-yl]-6-methyl-pyrimidin-4-yl]piperazin-1-yl]methyl]-6-methyl-morpholin-4-yl]quinoxaline-5-carbonitrile]", "values": [{"measurement": "inhibition at 5 min, 10 µM", "setting": "CYP2C9", "result": 17, "unit": "%"}]}
